Measured values from US20240307477A1, “COMPOSITION FOR PREVENTING OR TREATING LIVER FIBROSIS INCLUDING SANGUISORBA OFFICINALIS EXTRACT AS ACTIVE INGREDIENT” (KOREA INSTITUTE OF SCIENCE AND TECHNOLOGY, priority 2023, published 2024).

What follows are molecules tested on human immortalization hepatic stellate cells (human LX-2) (assay: RT-qPCR of liver fibrosis-related gene expression in TGF-β-treated hepatic stellate cells). Conditions: LX-2 cells, 5 ng/mL TGF-β, 24 hours; extract 1, 5 or 10 μg/mL, ziyuglycoside 5 μM; RT-qPCR vs GAPDH.
Assay type: cell-based
Experimental: As hepatic stellate cells, human immortalization hepatic stellate cells (human LX-2) were given and used. The hepatic stellate cells were cultured in Dulbecco's modified Eagle's medium (DMEM; Invitrogen, US) containing 10% fetal bovine serum (FBS), penicillin (100 U/mL) and streptomycin ([…]) at 37° C. and in a 5% CO2 condition.
To measure the hepatic anti-fibrosis effect of the Sanguisorba officinalis extract (1, 5 or 10 μg/mL) and ziyuglycoside (5 μM) in the LX-2 cells, a real time-quantitative polymerase chain reaction (RT-qPCR) was performed.
First, the hepatic stellate cells were treated with each of the Sanguisorba officinalis extract (1, 5, or 10 μg/mL) and the ziyuglycoside (5 μM) along with 5 ng/mL of a liver fibrosis-inducing material TGF-β and cultured for 24 hours. Afterward, the cells were washed with PBS, total RNA was then extracted according to the manual of an RNA extraction kit (GeneAll RNA isolation kit, Korea), and cDNA was synthesized from the extracted RNA. PCR analysis was performed under user recommended cycling conditions of an analyzer (Applied Biosystems 7900 HT thermal cycler, Applied Biosystems), and to confirm the expression level of each mRNA, PCR was performed using the primers in Table 1 below, and the fold change value for the control was calculated using GAPDH as an endogenous control, and a relative expression level was compared.

Row | Molecule | ACTA2 gene expression increased by TGF-β treatment | COL1A1 gene expression increased by TGF-β treatment | TIMP1 gene expression increased by TGF-β treatment
1 | C[C@@H]1CC[C@]2(C(=O)O)CC[C@]3(C)C(=CC[C@@H]4[C@@]5(C)CC[C@H](O[C@@H]6OC[C@H](O)[C@H](O)[C@H]6O)C(C)(C)[C@@H]5CC[C@]43C)[C@@H]2[C@]1(C)O [ziyuglycoside II] | inhibited | inhibited | inhibited
2 | C[C@@H]1CC[C@]2(C(=O)O[C@@H]3O[C@H](CO)[C@@H](O)[C@H](O)[C@H]3O)CC[C@]3(C)C(=CC[C@@H]4[C@@]5(C)CC[C@H](O[C@@H]6OC[C@H](O)[C@H](O)[C@H]6O)C(C)(C)[C@@H]5CC[C@]43C)[C@@H]2[C@]1(C)O [ziyuglycoside I] | inhibited | inhibited | inhibited
3 | ziyuglycoside | reduced | reduced | reduced
